Source: the supplement of paper PMC10307832

How the values were obtained:
Assay in all cases: relative viability (nuclei count vs DMSO), 5 days (fraction); higher = more cells survive
[1] = compound: C[C@@]1(C(=O)Nc2ccc(F)nc2)CCCN1c1nc(Nc2cc(C3CC3)n[nH]2)c2cccn2n1 + C[C@]1(O)C[C@@H](c2nc(-c3ccc4ccc(-c5ccccc5)nc4c3)c3c(N)nccn32)C1 [Linsitinib] (partner 1 µM)
How it was run: (§1)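 Lung cancer cell lines were seeded in 1536-well plates and dosed by pin tool the next day, with either a single drug or a fixed anchor-drug dose combined with five library-drug doses (not always all listed) spaced in √10 steps. Five days later, one step fixed the cells and stained their nuclei (final 0.05% Triton X-100, 1% formaldehyde, 1 ug/ml Hoechst), and nuclei were counted on 4× images. Relative viability is the nuclei count in treated wells divided by the count in vehicle wells, and each value is the median of duplicate plates.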

Motesanib + Navitoclax = compound: CC1(C)CNc2cc(NC(=O)c3cccnc3NCc3ccncc3)ccc21 [Motesanib] + CC1(C)CCC(c2ccc(Cl)cc2)=C(CN2CCN(c3ccc(C(=O)NS(=O)(=O)c4ccc(N[C@H](CCN5CCOCC5)CSc5ccccc5)c(S(=O)(=O)C(F)(F)F)c4)cc3)CC2)C1 [Navitoclax] (partner 0.5 µM)
How it was run: as §1

[2] = compound: C[C@@]1(C(=O)Nc2ccc(F)nc2)CCCN1c1nc(Nc2cc(C3CC3)n[nH]2)c2cccn2n1 + C[C@@H](Oc1cc(-c2cnn(C3CCNCC3)c2)cnc1N)c1c(Cl)ccc(F)c1Cl [Crizotinib] (partner 1 µM)
How it was run: as §1

Motesanib + Palbociclib = compound: CC1(C)CNc2cc(NC(=O)c3cccnc3NCc3ccncc3)ccc21 [Motesanib] + CC(=O)c1c(C)c2cnc(Nc3ccc(N4CCNCC4)cn3)nc2n(C2CCCC2)c1=O [Palbociclib] (partner 0.5 µM)
How it was run: as §1

| Cell Line | relative viability ([1]; first compound 0.04 µM) | relative viability ([1]; first compound 0.1265 µM) | relative viability ([1]; first compound 0.4 µM) | relative viability ([1]; first compound 1.265 µM) | relative viability (Motesanib + Navitoclax; first compound 0.01 µM) | relative viability (Motesanib + Navitoclax; first compound 0.03162 µM) | relative viability (Motesanib + Navitoclax; first compound 0.1 µM) | relative viability (Motesanib + Navitoclax; first compound 0.3162 µM) | relative viability (Motesanib + Navitoclax; first compound 1 µM) | relative viability ([2]; first compound 0.04 µM) | relative viability ([2]; first compound 0.1265 µM) | relative viability ([2]; first compound 0.4 µM) | relative viability ([2]; first compound 1.265 µM) | relative viability (Motesanib + Palbociclib; first compound 0.01 µM) | relative viability (Motesanib + Palbociclib; first compound 0.03162 µM) | relative viability (Motesanib + Palbociclib; first compound 0.1 µM) | relative viability (Motesanib + Palbociclib; first compound 0.3162 µM) | relative viability (Motesanib + Palbociclib; first compound 1 µM) |
| --- | --- | --- | --- | --- | --- | --- | --- | --- | --- | --- | --- | --- | --- | --- | --- | --- | --- | --- |
| EBC-1 | 0.953 | 0.76 | 0.706 | 0.891 | 0.48 | 0.419 | 0.377 | 0.47 | 0.417 | 0.195 | 0.168 | 0.211 | 0.2 | – | – | – | – | – |
| EKVX | 0.989 | 0.742 | 0.725 | 0.964 | 0.88 | 1.11 | 1.06 | 0.989 | 0.961 | 0.929 | 0.862 | 0.612 | 0.679 | 0.415 | 0.347 | 0.378 | 0.36 | 0.398 |
| EMC-BAC-2 | 0.808 | 0.897 | 0.795 | 0.884 | 1.18 | 1.15 | 1.22 | 1.19 | 1.13 | 0.675 | 0.697 | 0.66 | 0.816 | 0.513 | 0.511 | 0.526 | 0.526 | 0.534 |
| EPLC-272H | 1.39 | 1.07 | 1.12 | 1.58 | 1.16 | 0.905 | 1.3 | 1.04 | 1.26 | 0.977 | 0.857 | 0.676 | 1.16 | 0.284 | 0.3 | 0.344 | 0.36 | 0.381 |
| H3255 | 1.14 | 1.03 | 0.833 | 0.986 | 0.507 | 0.603 | 0.544 | 0.506 | 0.529 | 0.865 | 0.979 | 0.793 | 0.924 | 0.308 | 0.326 | 0.322 | 0.348 | 0.363 |
| HARA | 0.947 | 0.939 | 0.88 | 1.12 | 1.11 | 1.18 | 1.21 | 1.2 | 1.22 | 1.02 | 0.995 | 1.21 | 1.1 | 0.281 | 0.211 | 0.282 | 0.253 | 0.315 |
| HCC-15 | 0.902 | 0.885 | 0.782 | 0.981 | 0.69 | 0.718 | 0.713 | 0.773 | 0.748 | 0.749 | 0.63 | 0.66 | 0.714 | 0.777 | 0.668 | 0.695 | 0.768 | 0.702 |
| HCC-44 | 0.777 | 0.622 | 0.605 | 0.945 | 0.986 | 0.96 | 0.994 | 1.04 | 0.997 | 0.732 | 0.696 | 0.513 | 0.597 | 0.945 | 0.944 | 1.02 | 0.972 | 0.942 |
| HCC-78 | 0.541 | 0.332 | 0.313 | 0.259 | 0.817 | 0.862 | 0.825 | 0.818 | 0.947 | 0.31 | 0.212 | 0.216 | 0.307 | 0.442 | 0.467 | 0.478 | 0.511 | 0.56 |
